Experimental data taken from patent US10696989B2, “Biological method for preparing heme iron not derived from porcine blood” (INTRON BIOTECHNOLOGY, INC., priority 2017, dated 2020).

System: iron-deficiency-anemia-induced animals
Assay: Effectiveness of heme iron salt on alleviating anemia in iron-deficiency-anemia-induced rats
Assay type: in vivo, Sprague-Dawley rats
Conditions: oral once a day, 0.1 mg Fe/500 μl saline
Experimental: The salt of the heme iron prepared according to the present invention was dissolved in saline and administered to iron-deficiency-anemia-induced animals, whereby the effectiveness of the salt of the heme iron prepared according to the present invention on alleviating anemia was evaluated. Specifically, thirty 7-week-old Sprague-Dawley rats (female) were divided into 3 groups of 10 rats per group, among which one group was fed with normal feed in an amount of 10% of body weight daily for one month (Group 1; control), and the remaining two groups were fed with iron-deficient feed in an amount of 10% of body weight daily for one month to induce iron-deficiency anemia (Group 2 and Group 3). After one month of feeding, it was confirmed that iron-deficiency anemia was induced in the individual rat belonging to Group 2 and Group 3. Then, one of the anemia-induced groups was orally administered once a day with saline alone (Group 2), and the other anemia-induced group was orally administered once a day with saline containing heme iron (0.1 mg Fe/500 μl saline) (Group 3). The administration continued for 30 days, and the occurrence of abnormal symptoms was monitored during the administration period. After 30 days of administration, blood was collected, and whether anemia was alleviated was evaluated. During 30 days of administration to Group 2 and Group 3, Group 1 was continuously fed with normal feed, and Group 2 and Group 3 were fed with iron-deficient feed. […]

[1] = female rats on iron-deficient feed, blood collected after 30 days

Substance: heme iron
- Weight of rats on 30th day after administration (female rats on iron-deficient feed, 30 days): 265.2 ± 1.1 g
- Blood test: Hematocrit [1]: 35.8 ± 1.9%
- Blood test: Hemoglobin content [1]: 14.2 ± 0.4 g/dL
- Blood test: Mean corpuscular volume [1]: 48.2 ± 2.2 fL
- Blood test: RBC [1]: 8.59 ± 0.1 ×10^6/μl
- Alleviation of iron-deficiency anemia (conclusion) (30 days): effective at alleviating iron-deficiency anemia
- Occurrence of abnormal symptoms during the administration period (30 days): no abnormal symptoms
